This is an account of results in patent publication US20080286282A1, “Novel Use of Sulfonamide Compound in Combination with Angiogenesis Inhibitor” (Eisai R & D Management Co., Ltd., priority 2005, published 2008).

Where two headings read alike, the source gives them in different places.

One test relates to HCT116-C9-C1. In words: Cell growth inhibition assay (MTT, 72 h) on E7070-resistant HCT116-C9-C1. The test is classed as cell-based. The note with it: Homo sapiens. The procedure: (§1) An E7070-resistant cell line was used to assess the antiproliferative activities of E7820, LY186641, LY295501, LY-ASAP and CQS. HCT116-C9 was a substrain separated from human colon cancer-derived HCT116 (American Type Culture Collection, Manassas, Va., U.S.A.). This HCT116-C9 was cultured in the presence of E7070 while increasing the E7070 concentration by degrees, thereby obtaining E7070-resistant substrains HCT116-C9-C1 and HCT116-C9-C4 (Molecular Cancer Therapeutics, 2002, 1, 275-286).
(§2) Three cell lines, i.e., HCT116-C9, HCT116-C9-C1 and HCT116-C9-C4, were each seeded at 3000 cells/well onto a 96-well microplate (flat bottom) (50 μl/well). Twenty-four hours later, they were added with a 3-fold dilution series of each compound (50 μl/well). Seventy-two hours later, the antiproliferative activities were assessed by MTT method (Mossmann T., J. Immunol. Methods, 1983, 65, 55-63). The 50% growth inhibitory concentrations to the cancer cells were obtained by a least square method.
(§3) In exactly the same manner as in Example 6, an E7070-resistant cell line was used to assess the antiproliferative activities of LY573636 as well as those of E7070.

The subject of the next test is HCT116-C9. In words: Cell growth inhibition assay (MTT, 72 h) on HCT116-C9. The test is classed as cell-based. The note with it: Homo sapiens. The procedure: as §1, §2, §3
The test system of another test is HCT116-C9-C4. Briefly: Cell growth inhibition assay (MTT, 72 h) on E7070-resistant HCT116-C9-C4. It is filed as cell-based. Particulars: Homo sapiens. The procedure: as §1, §2, §3
The subject of test [1] is human renal cancer cell line (786-O). Briefly: Subcutaneous transplant model of human renal cancer cell line 786-O, E7820 and Bevacizumab (Example 9). The note with it: 786-O s.c. in nude mouse; E7820 200 mg/kg twice a day orally 2 weeks; Bevacizumab 25 mg/kg twice a week i.v. 2 weeks. The test is classed as in vivo. The procedure:
Human renal cancer cell line 786-0 (obtained from ATCC) was cultured in RPMI1640 (containing 10% FBS) in a 5% carbon dioxide incubator at 37° C. to about 80% confluence, and the cells were collected with trypsin-EDTA. Using a phosphate buffer containing 50% matrigel, 1×10^8 cells/mL suspension was prepared, and 0.1 mL each of the resulting cell suspension was subcutaneously transplanted to a nude mouse at the side of its body.
Seven days after the transplantation, E7820 and Bevacizumab were administered alone or in combination. E7820 was orally administered at 200 mg/kg twice a day for 2 weeks while Bevacizumab was intravenously administered at 25 mg/kg twice a week for 2 weeks.
The major and minor axes of tumors were measured with Digimatic caliper (Mitsutoyo), and tumor volumes and relative tumor volumes were calculated according to the following formulae.
(§4) Tumor Volume TV=Major axis of tumor (mm)×(Minor axis of tumor)^2 (mm^2)/2
(§5) Relative Tumor Volume RTV=Tumor volume on measurement day/Tumor volume on the first administration day

For test [2], the system named is human colon cancer cell line (Colo320DM). Briefly: Subcutaneous transplant model of human colon cancer cell line Colo320DM, E7820 and Bevacizumab (Example 2). It is filed as in vivo. The note with it: Colo320DM s.c. in nude mouse; E7820 200 mg/kg twice a day orally 3 weeks; Bevacizumab 25 mg/kg twice a week i.v. 3 weeks. The procedure:
Human colon cancer cell line Colo320DM (purchased from Dainippon Pharmaceutical) was cultured in RPMI1640 (containing 10% FBS) in a 5% carbon dioxide incubator at 37° C. to about 80% confluence, and the cells were collected with trypsin-EDTA. Using a phosphate buffer containing 50% matrigel, 5×10^7 cells/mL suspension was prepared, and 0.1 mL each of the resulting cell suspension was subcutaneously transplanted to a nude mouse at the side of its body. Seven days after the transplantation, administration of E7820 (200 mg/kg, twice a day, for 3 weeks, orally administered) and administration of Bevacizumab (25 mg/kg, twice a week, for 3 weeks, intravenously administered) were initiated. The major and minor axes of tumors were measured with Digimatic caliper (Mitsutoyo), and tumor volumes and relative tumor volumes were calculated according to the following formulae.
as §4, §5

For test [3] the test system is unchanged. In words: Subcutaneous transplant model of human colon cancer cell line Colo320DM, E7070 and Bevacizumab (Example 8). The note with it: Colo320DM s.c. in nude mouse, E7070 40 mg/kg i.v. Days 1 to 5, Bevacizumab 25 mg/kg i.v. Days 1, 5, 8 and 12; for Relative Tumor Volume (RTV) Average ± standard deviation: Day 23. It is filed as in vivo. The procedure: Human colon cancer cell line Colo320DM (purchased from ATCC) was cultured in RPMI1640 (containing 10% FBS) in a 5% carbon dioxide incubator to about 80% confluence, and the cells were collected with trypsin-EDTA. Using Hanks balanced solution, 5×10^7 cells/mL suspension was prepared, and 0.1 mL each of the resulting cell suspension was subcutaneously transplanted to a nude mouse at the side of its body.
Following transplantation, E7070 (40 mg/kg/day) and Bevacizumab (25 mg/kg/day) were administered alone or in combination when the average tumor volume became 259 mm^3.
E7070 alone was intravenously administered once a day for 5 days (on Days 1 to 5). On the other hand, Bevacizumab alone was intravenously administered twice a week for 2 weeks (on Days 1, 5, 8 and 12).
For the combinational use group, E7070 was intravenously administered on Days 1 to 5 while Bevacizumab was intravenously administered on Days 1, 5, 8 and 12.
The major and minor axes of tumors were measured twice a week from the initiation of administration with Digimatic caliper (Mitsutoyo), and tumor volumes were calculated according to the following formula.
as §4
The following two values were used for judging an anti-tumor effect.
Tx4: time (days) required for the tumor to grow to four times the initial tumor volume
RTV: Relative tumor volume (RTV)* on Day 23
*RTV=Tumor volume on Day 23/Initial tumor volume on Day 1

[4] abbreviates: Example 6, read-out: antiproliferative activity, IC50.
The mark [5] stands for this setting: Example 7, read-out: antiproliferative activity, IC50.

What is called IC50 is the concentration at which inhibition is half-maximal. In the case of `O=C(Nc1ccc(Cl)cc1)NS(=O)(=O)c1ccc2c(c1)CCC2` [LY186641, N-[[(4-chlorophenyl)amino]carbonyl]-2,3-dihydro-1H-indene-5-sulfonamide], the IC50 with HCT116-C9-C1 (setting [4]) is 134 µM; with HCT116-C9 (setting [4]), 33.6 µM; in the test with HCT116-C9-C4 (setting [4]), 138 µM.

Turning to `Nc1ccc(S(=O)(=O)Nc2cnc3c(Cl)cccc3n2)cc1` [CQS, 2-sulfanylamide-5-chloroquinoxaline], the IC50 was found to be 634 µM in the test with HCT116-C9-C1 (setting [4]), 1.73 µM with HCT116-C9 (setting [4]) and 517 µM with HCT116-C9-C4 (setting [4]).

As to `O=C(NS(=O)(=O)c1ccc(Cl)cc1)c1ccc(Cl)cc1Cl` [LY-ASAP, N-(2,4-dichlorobenzoyl)-4-chlorophenylsulfonamide], the values for the IC50 in the test on HCT116-C9-C1 (setting [4]), in the test with HCT116-C9 (setting [4]) and with HCT116-C9-C4 (setting [4]) were 113 µM, 1.63 µM and 90.3 µM, respectively.

Regarding `O=C(Nc1ccc(Cl)c(Cl)c1)NS(=O)(=O)c1ccc2c(c1)CCO2` [LY295501, N-[[(3,4-dichlorophenyl)amino]carbonyl]-2,3-dihydrobenzofuran-5-sulfonamide], the results for the IC50 with HCT116-C9-C1 (setting [4]), in the test with HCT116-C9 (setting [4]) and in the test with HCT116-C9-C4 (setting [4]) were 111 µM, 10.9 µM and 110 µM, respectively.

`Cc1ccc(NS(=O)(=O)c2cccc(C#N)c2)c2[nH]cc(C#N)c12` [E7820, N-(3-cyano-4-methyl-1H-indole-7-yl)-3-cyanobenzenesulfonamide]: the results for the IC50 in the test with HCT116-C9-C1 (setting [4]), with HCT116-C9 (setting [4]) and in the test with HCT116-C9-C4 (setting [4]) were 51.2 µM, 0.08 µM and 52.8 µM, respectively. Moreover, the results for the “Relative tumor volume on Day 22 Average ± standard deviation” value in test [1] and in test [2] were 0.6 ± 0.1 and 6.1 ± 1.8, respectively.

For the compound `NS(=O)(=O)c1ccc(S(=O)(=O)Nc2cccc3c(Cl)c[nH]c23)cc1` [E7070, N-(3-chloro-1H-indole-7-yl)-4-sulfamoylbenzenesulfonamide], the “Tx4 Average ± standard deviation (time required for the tumor to grow to four times the initial tumor volume)” value in test [3] was 27.0 ± 3.4 days. Besides, the “Relative Tumor Volume (RTV) Average ± standard deviation” value in test [3] turned out to be 2.70 ± 0.97. The IC50 with HCT116-C9-C1 (setting [4]) was determined as 31.9 µM; in the test with HCT116-C9-C1 (setting [5]) it was 32.7 µM; in the test with HCT116-C9 (setting [4]), 0.127 µM; with HCT116-C9-C4 (setting [4]), 26.9 µM; in the test with HCT116-C9-C4 (setting [5]) it was 28 µM.

On to “Bevacizumab: human anti-VEGF (Vascular Endothelial Growth Factor) monoclonal antibody, obtained by purchasing Avastin from Genentech”, for which, in test [3], the “Tx4 Average ± standard deviation (time required for the tumor to grow to four times the initial tumor volume)” value was 26.3 ± 2.8 days and the “Relative Tumor Volume (RTV) Average ± standard deviation” value is given as 2.84 ± 0.68. Also, in test [1], the “Relative tumor volume on Day 22 Average ± standard deviation” value is recorded as 1.8 ± 0.2. Besides, the “Relative tumor volume on Day 22 Average ± standard deviation” value in test [2] came to 5.1 ± 0.8.

As for `O=C(NS(=O)(=O)c1ccc(Br)s1)c1ccc(Cl)cc1Cl` [LY573636, N-(2,4-dichlorobenzoyl)-5-bromothiophene-2-sulfonamide], the IC50 in the test on HCT116-C9-C1 (setting [5]) was found to be 264 µM; with HCT116-C9 (setting [5]) it was 5.11 µM; in the test with HCT116-C9-C4 (setting [5]), 240 µM.
